Assay results as given in the NIST ThermoML archive (doi:10.1016/j.jct.2017.06.002).
Numbers after ± are expanded uncertainties.

Assays:
[1] = xn = mol fraction of the nth substance listed; settings: 100 kPa, Liquid, x1 = 1; for viscosity: Concentric cylinders viscometry; for mass density: Vibrating tube method
[2] = 100 kPa, Liquid; for viscosity: Concentric cylinders viscometry

COCOCOCOC [2,4,6,8-tetraoxanonane] + COCOCOCOCOC
[1]
Settings | mass density [kg/m3] | viscosity [mPa·s]
288.15 K | 1037.5 ± 2 | 1.259 ± 0.051
293.15 K | 1030.2 ± 2 | 1.166 ± 0.051
298.15 K | 1023.4 ± 2 | 1.084 ± 0.051
303.15 K | 1016.6 ± 2 | 1.028 ± 0.051
308.15 K | 1011 ± 2 | 0.9921 ± 0.051
313.15 K | 1005 ± 2 | 0.9521 ± 0.05

COCOCOC [2,4,6-trioxaheptane] + COCOCOCOC
[1]
Settings | mass density [kg/m3] | viscosity [mPa·s]
288.15 K | 999.4 ± 2 | 0.9255 ± 0.05
293.15 K | 995.3 ± 2 | 0.9152 ± 0.05
298.15 K | 989.9 ± 2 | 0.9028 ± 0.05
303.15 K | 984.3 ± 2 | 0.8885 ± 0.05
308.15 K | 978.8 ± 2 | 0.8726 ± 0.05
313.15 K | 974.2 ± 2 | 0.8554 ± 0.05

COCOCOCOC [2,4,6,8-tetraoxanonane]
[2]
Settings | viscosity [mPa·s]
288.15 K | 1.259 ± 0.051
293.15 K | 1.166 ± 0.051
298.15 K | 1.084 ± 0.051
303.15 K | 1.028 ± 0.051
308.15 K | 0.9921 ± 0.051
313.15 K | 0.9521 ± 0.05

mass density [kg/m3], [2]
Settings | 288.15 K | 293.15 K | 298.15 K | 303.15 K | 308.15 K | 313.15 K
Buoyancy - hydrostatic balance | – | – | 1023.1 ± 2 | – | – | –
Vibrating tube method | 1037.5 ± 2 | 1030.2 ± 2 | 1023.4 ± 2 | 1016.6 ± 2 | 1011 ± 2 | 1005 ± 2

COCOCOC [2,4,6-trioxaheptane] + COCOCOCOCOC
[1]
Settings | mass density [kg/m3] | viscosity [mPa·s]
288.15 K | 999.4 ± 2 | 0.9255 ± 0.05
293.15 K | 995.3 ± 2 | 0.9152 ± 0.05
298.15 K | 989.9 ± 2 | 0.9028 ± 0.05
303.15 K | 984.3 ± 2 | 0.8885 ± 0.05
308.15 K | 978.8 ± 2 | 0.8726 ± 0.05
313.15 K | 974.2 ± 2 | 0.8554 ± 0.05

COCOCOCOCOC [2,4,6,8,10-pentaoxaundecane]
[2]
Settings | viscosity [mPa·s]
288.15 K | 2.207 ± 0.051
293.15 K | 2.015 ± 0.051
298.15 K | 1.848 ± 0.051
303.15 K | 1.703 ± 0.051
308.15 K | 1.576 ± 0.051
313.15 K | 1.464 ± 0.051

mass density [kg/m3], [2]
Settings | 288.15 K | 293.15 K | 298.15 K | 303.15 K | 308.15 K | 313.15 K
Buoyancy - hydrostatic balance | – | – | 1067.8 ± 2 | – | – | –
Vibrating tube method | 1078.8 ± 2 | 1073.3 ± 2 | 1068.2 ± 2 | 1063.4 ± 2 | 1059.1 ± 2 | 1055.2 ± 2

COCOCOC [2,4,6-trioxaheptane]
[2]
Settings | viscosity [mPa·s]
288.15 K | 0.9255 ± 0.05
293.15 K | 0.9152 ± 0.05
298.15 K | 0.9028 ± 0.05
303.15 K | 0.8885 ± 0.05
308.15 K | 0.8726 ± 0.05
313.15 K | 0.8554 ± 0.05

mass density [kg/m3], [2]
Settings | 288.15 K | 293.15 K | 298.15 K | 303.15 K | 308.15 K | 313.15 K
Buoyancy - hydrostatic balance | – | – | 989.2 ± 2 | – | – | –
Vibrating tube method | 999.4 ± 2 | 995.3 ± 2 | 989.9 ± 2 | 984.3 ± 2 | 978.8 ± 2 | 974.2 ± 2
